Test [1] deals with genotype A, "Long" strain RSV. Description: RSV-A assay (CPE, ATPlite readout in Hep-2 cells). In kind it is cell-based. Particulars: human respiratory syncytial virus, HEp-2, Hep-2 cells, genotype A "Long" strain RSV, MOI 0.1; read-out: Human RSV-A (“Long” strain) EC50. The method, boiled down: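 Protection from RSV-induced cytopathic effect, measured as ATPlite luminescence after 5 days, gave EC50 values. Assay used genotype A Long strain at MOI 0.1 on Hep-2 cells seeded at 8,000/well in DMEM growth media with 10% FBS; compounds tested as 2-fold dilutions in duplicate.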

Test [2] relates to recombinant HMPV CAN97-83 (MPV-GFP1). Description: HMPV antiviral assay (MPV-GFP1 eGFP fluorescence in Vero E6 cells). In kind it is cell-based. The settings on record: human metapneumovirus, Vero C1008, 120 h, read-out: HMPV EC50. The method, boiled down:
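Vero E6 cells in serum-free OptiMEM with 0.5 μg/mL TPCK-trypsin infected with eGFP-expressing HMPV CAN97-83 (MPV-GFP1) at MOI 0.05. 8-point […] ½-step dilutions from 8 or 2 μM, 0.5% DMSO, 5 days at 32 °C. eGFP fluorescence normalized to infected untreated wells; EC50 from four-parameter logistic fit.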

Test [3] concerns HRSV. The settings on record: prophylactic use, high risk infants; cited from earlier work.

The values below come from patent publication US11505558B1, “Antiviral heterocyclic compounds” (Enanta Pharmaceuticals, Inc., priority 2019, dated 2022).

Where only a bound is given, the exact number is not on record here.

What is called EC50 is the concentration that produces a half-maximal response.

For `Cc1cnc2c(Nc3nccnn3)cc(C(=O)NC[C@](O)(c3cc4c(c(-c5ccc(F)cc5)n3)OC[C@]4(C)C(N)=O)C(F)(F)F)cc2c1` [Example 613], the EC50 in test [1] was less than 200 nM; in test [2], less than 500 nM.

Turning to `Cc1cnc2c(Oc3ncccn3)cc(C(=O)NC[C@](O)(c3cc4c(c(-c5ccc(F)cc5)n3)OC[C@]4(C)C(N)=O)C(F)(F)F)cc2c1` [Example 615], the EC50 in test [1] was less than 200 nM; in test [2] it was more than 500 nM. For `Cc1cc2cc(C(=O)NC[C@](O)(c3cc4c(c(-c5ccc(F)cc5)n3)OC[C@]4(C)C(N)=O)C(F)(F)F)ccc2nn1` [Example 616] the same measures were less than 200 nM and less than 500 nM. For `Cc1cc2cc(C(=O)NC[C@](O)(c3cc4c(c(-c5ccc(F)c(Cl)c5)n3)OC[C@]4(C)C(N)=O)C(F)(F)F)ccc2nn1` [Example 617], the EC50 in test [1] was less than 200 nM; in test [2], less than 500 nM. For `Cc1cnc2c(NC(=O)c3ccon3)cc(C(=O)NC[C@](O)(c3cc4c(c(-c5ccc(F)cc5)n3)OC[C@]4(C)C(N)=O)C(F)(F)F)cc2c1` [Example 621] the same measures were less than 200 nM and more than 500 nM. As to `Cc1cnc2c(NC(=O)NCC(C)(C)F)cc(C(=O)NC[C@](O)(c3cc4c(c(-c5ccc(F)cc5)n3)OC[C@]4(C)C(N)=O)C(F)(F)F)cc2c1` [Example 622], the 50% effective concentration (EC50) in test [1] is less than 200 nM; in test [2] it was less than 500 nM.

Regarding `Cc1cnc2c(NC(=O)c3nc(C)co3)cc(C(=O)NC[C@](O)(c3cc4c(c(-c5ccc(F)cc5)n3)OC[C@]4(C)C(N)=O)C(F)(F)F)cc2c1` [Example 623], the concentration for a half-maximal effect (EC50) in test [1] is less than 200 nM; in test [2], more than 500 nM. For `Cc1cnc2c(NC(=O)c3cnc(C)o3)cc(C(=O)NC[C@](O)(c3cc4c(c(-c5ccc(F)cc5)n3)OC[C@]4(C)C(N)=O)C(F)(F)F)cc2c1` [Example 624] the same measures were less than 200 nM and less than 500 nM.

On to `Cc1ccc2cc(C(=O)NC[C@](O)(c3cc4c(c(-c5ccc(F)cc5)n3)OC[C@]4(C)C(N)=O)C(F)(F)F)cc(NC(=O)C3CC3)c2n1` [Example 626], for which the EC50 in test [1] is less than 200 nM; in test [2] it was more than 500 nM. With `Cc1ccc2cc(C(=O)NC[C@](O)(c3cc4c(c(-c5ccc(F)cc5)n3)OC[C@]4(C)C(N)=O)C(F)(F)F)cc(NC(=O)C3(F)CC3)c2n1` [Example 627], the values for the 50% effective concentration (EC50) in test [1] and in test [2] were less than 200 nM and more than 500 nM, respectively. Take `C[C@]1(C(N)=O)COc2c1cc([C@@](O)(CNC(=O)c1cc(Cl)c3nc(N)sc3c1)C(F)(F)F)nc2-c1ccc(F)cc1` [Example 633]: the figures for the EC50 in test [1] and in test [2] were less than 200 nM and less than 500 nM, respectively. As to `COc1cc(C(=O)NC[C@](O)(c2cc3c(c(-c4ccc(F)cc4)n2)OC[C@]3(C)C(=O)NCC(C)(C)O)C(F)(F)F)cc2cn(C)nc12` [Example 635], the EC50 in test [1] is less than 200 nM; in test [2] it was less than 500 nM. For the compound `Cn1cc2cc(C(=O)NC[C@](O)(c3cc4c(c(-c5ccc(F)c(Cl)c5)n3)OC[C@]4(C)C(N)=O)C3CC3)ccc2n1` [Example 638], the half-maximal effective concentration (EC50) was less than 200 nM in test [1] and less than 500 nM in test [2].

As for `Cn1cc2cc(C(=O)NC[C@](O)(c3cc4c(c(-c5ccc(F)cc5)n3)OC[C@]4(C)C(=O)NCC(C)(C)O)C(F)(F)F)ccc2n1` [Example 640], the EC50 in test [1] is less than 200 nM; in test [2] it was more than 500 nM.

For `Cc1ccc(-c2nc([C@@](O)(CNC(=O)c3ccc4nn(C)cc4c3)C(F)(F)F)cc3c2OC[C@]3(C)C(N)=O)cc1` [Example 641], the EC50 in test [1] is less than 200 nM; in test [2] it was more than 500 nM. `Cn1cc2cc(C(=O)NC[C@](O)(c3cc4c(c(-c5ccc(F)cc5)n3)OC[C@]4(C)C(=O)NCC(C)(C)O)C3CC3)ccc2n1` [Example 642]: the EC50 in test [1] was less than 200 nM; in test [2] it was more than 500 nM. The like results for `COc1cc(C(=O)NC[C@](O)(c2cc3c(c(-c4ccc(F)cc4)n2)OCC3(F)C(N)=O)C(F)(F)F)cc2cc(Cl)c(C)nc12` (some centres unmarked) [Example 668] were, in that order, less than 200 nM and less than 500 nM. With `COc1cc(C(=O)NC[C@](O)(c2cc3c(c(-c4ccc(F)cc4)n2)OCC3(F)C(N)=O)C(F)(F)F)cc2cccnc12` (some centres unmarked) [Example 669], the EC50 was less than 200 nM in test [1] and more than 500 nM in test [2]. For `COc1cc(C(=O)NC[C@](O)(c2cc3c(c(-c4ccc(F)cc4)n2)OCC3(F)C(N)=O)C(F)(F)F)cc2cn(C(F)F)nc12` (some centres unmarked) [Example 670] the same measures were less than 200 nM and less than 500 nM. Consider `COc1cc(C(=O)NC[C@](O)(c2cc3c(c(-c4ccc(F)cc4)n2)OCC3(F)C(N)=O)C(F)(F)F)cc2cn(C3CC3)nc12` (some centres unmarked) [Example 676], for which the EC50 is less than 200 nM in test [1] and less than 500 nM in test [2]. For the compound Palivizumab, the “effective in reducing hospitalizations” value in test [3] is recorded as 60%.
